How the values were obtained:
B. subtilis = experiment: Antimicrobial activity (zone of inhibition) of treated cotton fabric; format: cell-based; settings: aqueous solution applied to cotton fabric; observation over all plates
Excerpt: (§1) Each aqueous solution prepared and applied to cotton fabric and tested for antimicrobial activity.
(§2) In Table 2, below, “5+” represents a zone of inhibition ranging 41 mm to 50 mm; “4+” represents a zone of 31 mm to 40 mm; “3+” represents a zone of 21 mm to 30 mm; “2+” represents a zone of 11 mm to 20 mm; “1+” represents a zone of 1 mm to 10 mm; and “−” represents no antimicrobial activity noted.
(§3) The American Association of Textile Chemists and Colorists (AATCC) test method 147, Antibacterial Assessment of Textile Materials was used to qualitatively test the biocidal efficacy of pretreatment solutions according to an embodiment of the present invention. Test material was aseptically transferred directly onto the surface of an inoculated nutrient agar slurry. After a specified incubation contact time, the test material was removed and any growth, or lack thereof, beneath the test material surface is recorded.

S. aureus = experiment: as above; format: cell-based; settings: aqueous solution applied to cotton fabric; observation over all plates
Excerpt: as §1, §2, §3

SMILES | clearing of plates in words, B. subtilis (B. subtilis) | clearing of plates in words, S. aureus (S. aureus)
Oc1cccc2cccnc12 [8HQ, 8-hydroxyquinoline] | cleared plates 2 | 
O=S(=O)(O)O.Oc1cccc2cccnc12.Oc1cccc2cccnc12 [Quinolinol salt hemisulfate, 8-HQ hemisulfate] |  | Cleared all of

Reference: patent publication US20160366888A1, “ENVIRONMENTALLY FRIENDLY FORMULATIONS FOR BI-COMPONENT HETEROCYCLIC SCHIFF BASE TEXTILE FINISHES” (Government of the United States as Represented by the …, priority 2013, published 2016)
